ChEMBL document CHEMBL1201861, “Genomics of Drug Sensitity in Cancer screening data, Wellcome Trust Sanger Institute”

Legend:
[1] = test system: T84; experiment: cells; type: functional, cell-based; details: Homo sapiens;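 note: growth inhibition measured with a cell viability readout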
Description: SANGER: Inhibition of human T84 cell growth in a cell viability assay.

[2] = test system: U2OS; experiment: cells; type: functional, cell-based, U-2-OS; details: Homo sapiens;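 note: growth inhibition of human U-2-OS cells, determined with a cell viability assay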
Description: SANGER: Inhibition of human U-2-OS cell growth in a cell viability assay.

[3] = test system: HuCCT-1; experiment: cells; type: functional, cell-based, HuCCT1; details: Homo sapiens;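 note: growth inhibition of HuCCT-1 cells, read out by a cell viability assay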
Description: SANGER: Inhibition of human HuCCT1 cell growth in a cell viability assay.

[4] = test system: UMUC3; experiment: cells; type: functional, cell-based; details: Homo sapiens;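 note: growth inhibition of human UM-UC-3 cells, read out with a cell viability assay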
Description: SANGER: Inhibition of human UM-UC-3 cell growth in a cell viability assay.

[5] = test system: BFTC-905; experiment: cells; type: functional, cell-based; details: Homo sapiens
Description: SANGER: Inhibition of human BFTC-905 cell growth in a cell viability assay.

[6] = test system: HuTu80; experiment: cells; type: functional, cell-based, Homo sapiens, HUTU-80; details: Homo sapiens, HuTu80;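 note: growth inhibition of HuTu80 human cells, determined with a cell viability readout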
Description: SANGER: Inhibition of human HUTU-80 cell growth in a cell viability assay.

[7] = test system: RL; experiment: cells; type: functional, cell-based, Homo sapiens; details: Homo sapiens, RL
Description: SANGER: Inhibition of human RL cell growth in a cell viability assay.

[8] = test system: NCI-H1623; experiment: cells; type: functional, cell-based; details: Homo sapiens;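 note: cell viability assay used as the read-out for growth inhibition of NCI-H1623 cells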
Description: SANGER: Inhibition of human NCI-H1623 cell growth in a cell viability assay.

[9] = test system: MHH-CALL-2; experiment: cells; type: functional, cell-based, Homo sapiens; details: Homo sapiens, MHH-CALL-2;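 note: growth inhibition of the cell line, read out in a cell viability assay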
Description: SANGER: Inhibition of human MHH-CALL-2 cell growth in a cell viability assay.

[10] = test system: OVCAR-5; experiment: cells; type: functional, cell-based; details: Homo sapiens;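 note: growth inhibition of human OVCAR-5 cells, read out with a cell viability assay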
Description: SANGER: Inhibition of human OVCAR-5 cell growth in a cell viability assay.

[11] = test system: MRK-nu-1; experiment: cells; type: functional, cell-based, Homo sapiens; details: Homo sapiens, MRK-nu-1;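 note: cell viability assay measuring growth suppression of human MRK-nu-1 cells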
Description: SANGER: Inhibition of human MRK-nu-1 cell growth in a cell viability assay.

[12] = test system: HT-1080; experiment: cells; type: functional, cell-based; details: Homo sapiens
Description: SANGER: Inhibition of human HT-1080 cell growth in a cell viability assay.

[13] = test system: NCI-H2081; experiment: cells; type: functional, cell-based, Homo sapiens; details: Homo sapiens, NCI-H2081;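 note: growth inhibition of human NCI-H2081 cells, read out with a cell viability assay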
Description: SANGER: Inhibition of human NCI-H2081 cell growth in a cell viability assay.

[14] = test system: SK-N-AS; experiment: cells; type: functional, cell-based; details: Homo sapiens;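 note: growth inhibition of human SK-N-AS cells, measured with a cell viability assay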
Description: SANGER: Inhibition of human SK-N-AS cell growth in a cell viability assay.

[15] = test system: SCC-9; experiment: cells; type: functional, cell-based; details: Homo sapiens;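 note: Read-out is a cell viability assay, with values giving inhibition of cell growth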
Description: SANGER: Inhibition of human SCC-9 cell growth in a cell viability assay.

[16] = test system: 5637; experiment: cells; type: functional, cell-based; details: Homo sapiens
Description: SANGER: Inhibition of human 5637 cell growth in a cell viability assay.

[17] = test system: CHP-126; experiment: cells; type: functional, cell-based, Homo sapiens; details: Homo sapiens, CHP-126
Description: SANGER: Inhibition of human CHP-126 cell growth in a cell viability assay.

[18] = test system: SNU-C1; experiment: cells; type: functional, cell-based, Homo sapiens; details: Homo sapiens, SNU-C1;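 note: growth inhibition of SNU-C1 human cells, read out by a cell viability assay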
Description: SANGER: Inhibition of human SNU-C1 cell growth in a cell viability assay.

[19] = test system: CHL-1; experiment: cells; type: functional, cell-based; details: Homo sapiens;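 note: cell growth inhibition, read out with a cell viability assay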
Description: SANGER: Inhibition of human CHL-1 cell growth in a cell viability assay.

[20] = test system: SK-MES-1; experiment: cells; type: functional, cell-based; details: Homo sapiens;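 note: growth inhibition of human SK-MES-1 cells, read out with a cell viability assay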
Description: SANGER: Inhibition of human SK-MES-1 cell growth in a cell viability assay.

[21] = test system: ABC-1; experiment: cells; type: functional, cell-based; details: Homo sapiens;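 note: growth inhibition of human ABC-1 cells, read out by a cell viability assay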
Description: SANGER: Inhibition of human ABC-1 cell growth in a cell viability assay.

[22] = test system: BEN; experiment: cells; type: functional, cell-based; details: Homo sapiens;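 note: growth inhibition of the BEN cell line, read out with a cell viability assay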
Description: SANGER: Inhibition of human BEN cell growth in a cell viability assay.

[23] = test system: COR-L23; experiment: cells; type: functional, cell-based; details: Homo sapiens;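 note: cell viability assay measuring how strongly compounds suppress growth of COR-L23 cells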
Description: SANGER: Inhibition of human COR-L23 cell growth in a cell viability assay.

[24] = test system: U-251; experiment: cells; type: functional, cell-based; details: Homo sapiens;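 note: growth inhibition of human U-251 cells, read out through a cell viability assay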
Description: SANGER: Inhibition of human U251 cell growth in a cell viability assay.

[25] = test system: NCI-H64; experiment: cells; type: functional, cell-based, Homo sapiens; details: Homo sapiens, NCI-H64;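 note: growth inhibition of NCI-H64 cells, read out with a cell viability assay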
Description: SANGER: Inhibition of human NCI-H64 cell growth in a cell viability assay.

[26] = test system: CAMA-1; experiment: cells; type: functional, cell-based; details: Homo sapiens;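 note: growth inhibition of CAMA-1 cells, read out with a cell viability assay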
Description: SANGER: Inhibition of human CAMA-1 cell growth in a cell viability assay.

[27] = test system: HOS; experiment: cells; type: functional, cell-based; details: Homo sapiens;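 note: growth inhibition of human HOS cells, read out with a cell viability assay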
Description: SANGER: Inhibition of human HOS cell growth in a cell viability assay.

[28] = test system: NCI-H441; experiment: cells; type: functional, cell-based; details: Homo sapiens;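 note: growth inhibition of NCI-H441 cells, read out with a cell viability assay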
Description: SANGER: Inhibition of human NCI-H441 cell growth in a cell viability assay.

[29] = test system: SK-MM-2; experiment: cells; type: functional, cell-based, Homo sapiens; details: Homo sapiens, SK-MM-2;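 note: growth inhibition of human SK-MM-2 cells, read out with a cell viability assay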
Description: SANGER: Inhibition of human SK-MM-2 cell growth in a cell viability assay.

[30] = test system: BXPC-3; experiment: cells; type: functional, cell-based; details: Homo sapiens;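 note: growth inhibition of human BxPC-3 cells, read out by a cell viability assay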
Description: SANGER: Inhibition of human BxPC-3 cell growth in a cell viability assay.

[31] = test system: SJRH30; experiment: cells; type: functional, cell-based; details: Homo sapiens;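 note: growth inhibition of human SJRH30 cells, read out with a cell viability assay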
Description: SANGER: Inhibition of human SJRH30 cell growth in a cell viability assay.

[32] = test system: CP50-MEL-B; experiment: cells; type: functional, cell-based; details: Homo sapiens;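 note: growth inhibition of the human cell line, measured with a cell viability read-out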
Description: SANGER: Inhibition of human CP50-MEL-B cell growth in a cell viability assay.

[33] = test system: FTC-133; experiment: cells; type: functional, cell-based; details: Homo sapiens
[34] = test system: DMS-153; experiment: cells; type: functional, cell-based, Homo sapiens; details: Homo sapiens, DMS-153
Description: SANGER: Inhibition of human DMS-153 cell growth in a cell viability assay.

[35] = test system: NCI-H2342; experiment: cells; type: functional, cell-based; details: Homo sapiens;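 note: growth inhibition of the cancer cell line, determined with a cell viability assay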
Description: SANGER: Inhibition of human NCI-H2342 cell growth in a cell viability assay.

[36] = test system: GMS-10; experiment: cells; type: functional, cell-based; details: Homo sapiens;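 note: growth inhibition of GMS-10 cells, read out as cell viability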
Description: SANGER: Inhibition of human GMS-10 cell growth in a cell viability assay.

[37] = test system: TYK-nu; experiment: cells; type: functional, cell-based; details: Homo sapiens;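 note: growth inhibition of human TYK-nu cells, read out by a cell viability assay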
Description: SANGER: Inhibition of human TYK-nu cell growth in a cell viability assay.

[38] = test system: NCI-H2452; experiment: cells; type: functional, cell-based; details: Homo sapiens;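 note: growth inhibition of NCI-H2452 cells, read out with a cell viability assay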
Description: SANGER: Inhibition of human NCI-H2452 cell growth in a cell viability assay.

[39] = test system: COLO-680N; experiment: cells; type: functional, cell-based; details: Homo sapiens;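 note: cell viability assay used to measure inhibition of COLO-680N cell growth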
Description: SANGER: Inhibition of human COLO-680N cell growth in a cell viability assay.

[40] = test system: OPM-2; experiment: cells; type: functional, cell-based, Homo sapiens; details: Homo sapiens, OPM-2;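 note: growth of OPM-2 cells measured with a viability assay, IC50 for suppression of proliferation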
Description: SANGER: Inhibition of human OPM-2 cell growth in a cell viability assay.

[41] = test system: MFE-280; experiment: cells; type: functional, cell-based; details: Homo sapiens;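 note: growth inhibition of MFE-280 cells, determined with a cell viability readout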
Description: SANGER: Inhibition of human MFE-280 cell growth in a cell viability assay.

[42] = test system: MFH-ino; experiment: cells; type: functional, cell-based, Homo sapiens; details: Homo sapiens, MFH-ino;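 note: growth inhibition of human MFH-ino cells, read out by a cell viability assay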
Description: SANGER: Inhibition of human MFH-ino cell growth in a cell viability assay.

[43] = test system: HOP-92; experiment: cells; type: functional, cell-based; details: Homo sapiens;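 note: cell viability readout, with IC50 reflecting inhibition of HOP-92 cell growth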
Description: SANGER: Inhibition of human HOP-92 cell growth in a cell viability assay.

[44] = test system: CWR22R; experiment: cells; type: functional, cell-based; details: Homo sapiens, 22Rv1;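 note: growth inhibition of 22Rv1 cells, read out with a cell viability assay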
Description: SANGER: Inhibition of human 22RV1 cell growth in a cell viability assay.

[45] = test system: HuP-T3; experiment: cells; type: functional, cell-based; details: Homo sapiens;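 note: HuP-T3 cell growth inhibition, read out with a cell viability assay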
Description: SANGER: Inhibition of human HuP-T3 cell growth in a cell viability assay.

[46] = test system: BC1 cell line; experiment: SANGER: Inhibition of human BC-1 cell growth in a cell viability assay.; type: functional, cell-based; details: Homo sapiens, BC1
[47] = test system: FaDu; experiment: cells; type: functional, cell-based; details: Homo sapiens;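 note: cell viability readout of growth inhibition in FaDu cells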
Description: SANGER: Inhibition of human FADU cell growth in a cell viability assay.

[48] = test system: SCC-4; experiment: cells; type: functional, cell-based; details: Homo sapiens;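 note: growth inhibition of human SCC-4 cells, read out as cell viability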
Description: SANGER: Inhibition of human SCC-4 cell growth in a cell viability assay.

[49] = test system: SW837; experiment: cells; type: functional, cell-based; details: Homo sapiens;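 note: growth inhibition of SW837 cells, determined with a cell viability assay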
Description: SANGER: Inhibition of human SW837 cell growth in a cell viability assay.

[50] = test system: SW1088; experiment: cells; type: functional, cell-based; details: Homo sapiens;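 note: growth inhibition of human SW1088 cells, read out by a cell viability assay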
Description: SANGER: Inhibition of human SW1088 cell growth in a cell viability assay.

[51] = test system: SKG-IIIa; experiment: cells; type: functional, cell-based; details: Homo sapiens;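 note: cell growth inhibition, read out with a cell viability assay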
Description: SANGER: Inhibition of human SKG-IIIa cell growth in a cell viability assay.

[52] = test system: YT; experiment: cells; type: functional, cell-based, Homo sapiens; details: Homo sapiens, YT
Description: SANGER: Inhibition of human YT cell growth in a cell viability assay.

[53] = test system: KMOE-2; experiment: cells; type: functional, cell-based, Homo sapiens; details: Homo sapiens, KMOE-2;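 note: growth inhibition of human KMOE-2 cells, read out with a cell viability assay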
Description: SANGER: Inhibition of human KMOE-2 cell growth in a cell viability assay.

[54] = test system: A673; experiment: cells; type: functional, cell-based; details: Homo sapiens;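 note: growth inhibition of human A673 cells, read out through a cell viability assay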
Description: SANGER: Inhibition of human A673 cell growth in a cell viability assay.

[55] = test system: ESS-1; experiment: cells; type: functional, cell-based; details: Homo sapiens;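 note: growth inhibition of human ESS-1 cells, read out by a cell viability assay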
Description: SANGER: Inhibition of human ESS-1 cell growth in a cell viability assay.

[56] = test system: KYSE-510; experiment: cells; type: functional, cell-based; details: Homo sapiens;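 note: cell viability readout used to measure how strongly growth of the cell line is suppressed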
Description: SANGER: Inhibition of human KYSE-510 cell growth in a cell viability assay.

[57] = test system: NB1; experiment: cells; type: functional, cell-based, Homo sapiens; details: Homo sapiens, NB1;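 note: reduction of NB1 cell proliferation, read out with a viability assay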
Description: SANGER: Inhibition of human NB1 cell growth in a cell viability assay.

[58] = test system: NCI-H1693; experiment: cells; type: functional, cell-based; details: Homo sapiens;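 note: growth inhibition of the human cell line, read out with a cell viability assay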
Description: SANGER: Inhibition of human NCI-H1693 cell growth in a cell viability assay.

C/C(=C\c1csc(C)n1)[C@@H]1C[C@@H]2O[C@]2(C)CCC[C@H](C)[C@H](O)[C@@H](C)C(=O)C(C)(C)[C@@H](O)CC(=O)O1 [PATUPILONE]
IC50 [1]: 0.24 nM
IC50 [2]: > 32 nM
IC50 [3]: 2.61 nM
IC50 [4]: 1.85 nM
IC50 [5]: 0.0499 nM
IC50 [6]: 0.328 nM
IC50 [7]: > 32 nM
IC50 [8]: 16.9 nM
IC50 [9]: > 32 nM
IC50 [10]: 2.84 nM
IC50 [11]: 0.9 nM
IC50 [12]: 0.842 nM
IC50 [13]: > 32 nM
IC50 [14]: > 32 nM
IC50 [15]: > 32 nM
IC50 [16]: 0.638 nM
IC50 [17]: > 32 nM
IC50 [18]: > 32 nM
IC50 [19]: 0.979 nM
IC50 [20]: 1.24 nM
IC50 [21]: 1.68 nM
IC50 [22]: 20.6 nM
IC50 [23]: 1.35 nM
IC50 [24]: 10.8 nM
IC50 [25]: 8.25 nM
IC50 [26]: 12.9 nM
IC50 [27]: 0.215 nM
IC50 [28]: 2.53 nM
IC50 [29]: 17.3 nM
IC50 [30]: 1.74 nM
IC50 [31]: 12.9 nM
IC50 [32]: 19 nM
IC50 [33]: 30.5 nM
IC50 [34]: 29.3 nM
IC50 [35]: 0.577 nM
IC50 [36]: > 32 nM
IC50 [37]: > 32 nM
IC50 [38]: > 32 nM
IC50 [39]: 7.16 nM
IC50 [40]: > 32 nM
IC50 [41]: > 32 nM
IC50 [42]: 0.885 nM
IC50 [43]: > 32 nM
IC50 [44]: 8.41 nM
IC50 [45]: 3.81 nM
IC50 [46]: 1.99 nM
IC50 [47]: 26.2 nM
IC50 [48]: 0.877 nM
IC50 [49]: 2.47 nM
IC50 [50]: 5.79 nM
IC50 [51]: > 32 nM
IC50 [52]: 18.7 nM
IC50 [53]: > 32 nM
IC50 [54]: 2.48 nM
IC50 [55]: 1.52 nM
IC50 [56]: 0.0738 nM
IC50 [57]: 14.6 nM
IC50 [58]: > 32 nM

COc1ccc(-c2cc3nccn3c(Nc3ncccc3C(N)=O)n2)cc1OC
IC50 [1]: 3230 nM
IC50 [2]: > 8000 nM
IC50 [3]: > 8000 nM
IC50 [4]: 7410 nM
IC50 [5]: 2290 nM
IC50 [6]: 1810 nM
IC50 [7]: > 8000 nM
IC50 [8]: > 8000 nM
IC50 [9]: > 8000 nM
IC50 [10]: 7410 nM
IC50 [11]: 2910 nM
IC50 [12]: 3230 nM
IC50 [13]: > 8000 nM
IC50 [14]: > 8000 nM
IC50 [15]: > 8000 nM
IC50 [16]: > 8000 nM
IC50 [17]: 6500 nM
IC50 [18]: > 8000 nM
IC50 [19]: 4050 nM
IC50 [20]: 1810 nM
IC50 [21]: > 8000 nM
IC50 [22]: > 8000 nM
IC50 [23]: 2380 nM
IC50 [24]: > 8000 nM
IC50 [25]: 2160 nM
IC50 [26]: > 8000 nM
IC50 [27]: 3320 nM
IC50 [28]: 5650 nM
IC50 [29]: > 8000 nM
IC50 [30]: 2860 nM
IC50 [31]: > 8000 nM
IC50 [32]: > 8000 nM
IC50 [33]: > 8000 nM
IC50 [34]: > 8000 nM
IC50 [35]: 1820 nM
IC50 [36]: > 8000 nM
IC50 [37]: > 8000 nM
IC50 [38]: > 8000 nM
IC50 [39]: > 8000 nM
IC50 [40]: 6160 nM
IC50 [41]: > 8000 nM
IC50 [42]: > 8000 nM
IC50 [43]: > 8000 nM
IC50 [44]: > 8000 nM
IC50 [45]: > 8000 nM
IC50 [46]: 1070 nM
IC50 [47]: > 8000 nM
IC50 [48]: > 8000 nM
IC50 [49]: 3540 nM
IC50 [50]: > 8000 nM
IC50 [51]: > 8000 nM
IC50 [52]: 2340 nM
IC50 [53]: 1980 nM
IC50 [54]: > 8000 nM
IC50 [55]: 4080 nM
IC50 [56]: 2870 nM
IC50 [57]: 1710 nM
IC50 [58]: > 8000 nM

CC1=C(/C=C/C(C)=C/C=C/C(C)=C/C(=O)O)C(C)(C)CCC1 [TRETINOIN]
IC50 [1]: > 10000 nM
IC50 [2]: > 10000 nM
IC50 [3]: > 10000 nM
IC50 [4]: > 10000 nM
IC50 [5]: > 10000 nM
IC50 [6]: > 10000 nM
IC50 [8]: > 10000 nM
IC50 [10]: > 10000 nM
IC50 [12]: > 10000 nM
IC50 [14]: > 10000 nM
IC50 [15]: > 10000 nM
IC50 [16]: > 10000 nM
IC50 [19]: > 10000 nM
IC50 [20]: > 10000 nM
IC50 [21]: > 10000 nM
IC50 [22]: > 10000 nM
IC50 [23]: > 10000 nM
IC50 [24]: > 10000 nM
IC50 [26]: > 10000 nM
IC50 [27]: > 10000 nM
IC50 [28]: > 10000 nM
IC50 [30]: > 10000 nM
IC50 [31]: > 10000 nM
IC50 [32]: > 10000 nM
IC50 [33]: > 10000 nM
IC50 [35]: > 10000 nM
IC50 [36]: > 10000 nM
IC50 [37]: > 10000 nM
IC50 [38]: > 10000 nM
IC50 [39]: > 10000 nM
IC50 [41]: > 10000 nM
IC50 [42]: > 10000 nM
IC50 [43]: > 10000 nM
IC50 [44]: > 10000 nM
IC50 [45]: > 10000 nM
IC50 [47]: > 10000 nM
IC50 [48]: > 10000 nM
IC50 [49]: > 10000 nM
IC50 [50]: > 10000 nM
IC50 [51]: > 10000 nM
IC50 [53]: > 10000 nM
IC50 [54]: > 10000 nM
IC50 [55]: > 10000 nM
IC50 [56]: > 10000 nM
IC50 [58]: > 10000 nM
